Data from the NIST ThermoML archive (doi:10.1021/je100484n).

Experiments:
[1] = xn = mol fraction of the nth substance listed; conditions: 101 kPa, Liquid
[2] = refractive index (Na D-line) (dimensionless); xn = mol fraction of the nth substance listed; conditions: 101 kPa, Liquid

CC(C)(C)O [2-methylpropan-2-ol] + CCCCCCC
Conditions	mass density, 303.15 K [kg/m3]	mass density, 308.15 K [kg/m3]	mass density, 313.15 K [kg/m3]	mass density, 318.15 K [kg/m3]	mass density, 323.15 K [kg/m3]	refractive index, 303.15 K	refractive index, 308.15 K	refractive index, 313.15 K	refractive index, 318.15 K	refractive index, 323.15 K
[1], x1 = 0.1006	679.898	675.406	670.867	666.278	661.645	–	–	–	–	–
[1], x1 = 0.1502	682.8	678.262	673.669	669.017	664.315	–	–	–	–	–
[1], x1 = 0.2	685.899	681.327	676.692	671.995	667.235	–	–	–	–	–
[1], x1 = 0.3	692.705	688.078	683.382	678.612	673.771	–	–	–	–	–
[1], x1 = 0.4	700.298	695.628	690.882	686.056	681.144	–	–	–	–	–
[1], x1 = 0.4998	708.705	703.995	699.207	694.329	689.366	–	–	–	–	–
[1], x1 = 0.6	718.327	713.568	708.726	703.799	698.776	–	–	–	–	–
[1], x1 = 0.7	729.448	724.603	719.685	714.683	709.587	–	–	–	–	–
[1], x1 = 0.7998	742.308	737.338	732.305	727.201	721.991	–	–	–	–	–
[1], x1 = 0.8479	749.34	744.297	739.195	734.015	728.76	–	–	–	–	–
[1], x1 = 0.8998	757.564	752.448	747.271	742.022	736.693	–	–	–	–	–
[1], x1 = 0.9499	766.164	760.994	755.749	750.424	745.02	–	–	–	–	–
[1], x1 = 1	775.412	770.193	764.884	759.488	754.015	–	–	–	–	–
[2], x1 = 0.1006	–	–	–	–	–	1.3814	1.37865	1.37591	1.37312	1.37031
[2], x1 = 0.1502	–	–	–	–	–	1.38092	1.37816	1.37539	1.37258	1.36973
[2], x1 = 0.2	–	–	–	–	–	1.38051	1.37775	1.37496	1.37213	1.36928
[2], x1 = 0.3	–	–	–	–	–	1.37984	1.37711	1.37431	1.37149	1.36865
[2], x1 = 0.4	–	–	–	–	–	1.37936	1.37667	1.37387	1.37108	1.36828
[2], x1 = 0.4998	–	–	–	–	–	1.37907	1.37641	1.3736	1.37085	1.36807
[2], x1 = 0.6	–	–	–	–	–	1.37899	1.37633	1.3735	1.37079	1.36801
[2], x1 = 0.7	–	–	–	–	–	1.37917	1.37649	1.37364	1.37094	1.36814
[2], x1 = 0.7998	–	–	–	–	–	1.37969	1.37697	1.37411	1.37139	1.36855
[2], x1 = 0.8479	–	–	–	–	–	1.38009	1.37735	1.37449	1.37175	1.36889
[2], x1 = 0.8998	–	–	–	–	–	1.38066	1.37791	1.37505	1.37229	1.36942
[2], x1 = 0.9499	–	–	–	–	–	1.38136	1.3786	1.37577	1.37297	1.37009
[2], x1 = 1	–	–	–	–	–	1.38222	1.37947	1.37667	1.37384	1.37097
